Reference: ChEMBL document CHEMBL1145933, “Novel sst(4)-selective somatostatin (SRIF) agonists. 1. Lead identification using a betide scan” (J Med Chem, 2003)
Where a SMILES comes first, the peptide text is derived from it. Bridges are numbered along the chain shown (N, C = ends). [ ]: non-standard residue; d: D form.

Columns and labels:
[1] = target: Somatostatin receptor type 1 (Homo sapiens, UniProt P30872); experiment: Binding affinity towards human Somatostatin receptor type 1 using 125I-[Leu,DTrp,Tyr]SRIF-28 as radioligand
Sequence of Somatostatin receptor type 1 (P30872 whole entry): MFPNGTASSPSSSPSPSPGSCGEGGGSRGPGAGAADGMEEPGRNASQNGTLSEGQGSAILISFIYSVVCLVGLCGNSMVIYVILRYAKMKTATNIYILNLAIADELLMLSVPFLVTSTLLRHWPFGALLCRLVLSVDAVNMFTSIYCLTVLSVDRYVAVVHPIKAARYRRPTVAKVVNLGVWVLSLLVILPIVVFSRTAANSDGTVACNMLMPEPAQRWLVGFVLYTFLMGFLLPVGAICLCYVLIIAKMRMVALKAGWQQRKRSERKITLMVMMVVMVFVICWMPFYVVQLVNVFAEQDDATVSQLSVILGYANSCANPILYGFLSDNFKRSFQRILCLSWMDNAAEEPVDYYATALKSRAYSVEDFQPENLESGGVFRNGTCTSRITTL

[2] = target: Somatostatin receptor type 2 (Homo sapiens, UniProt P30874); experiment: Binding affinity towards human Somatostatin receptor type 2 using 125I-[Leu,DTrp,Tyr]SRIF-28 as radioligand
Sequence of Somatostatin receptor type 2 (P30874 whole entry): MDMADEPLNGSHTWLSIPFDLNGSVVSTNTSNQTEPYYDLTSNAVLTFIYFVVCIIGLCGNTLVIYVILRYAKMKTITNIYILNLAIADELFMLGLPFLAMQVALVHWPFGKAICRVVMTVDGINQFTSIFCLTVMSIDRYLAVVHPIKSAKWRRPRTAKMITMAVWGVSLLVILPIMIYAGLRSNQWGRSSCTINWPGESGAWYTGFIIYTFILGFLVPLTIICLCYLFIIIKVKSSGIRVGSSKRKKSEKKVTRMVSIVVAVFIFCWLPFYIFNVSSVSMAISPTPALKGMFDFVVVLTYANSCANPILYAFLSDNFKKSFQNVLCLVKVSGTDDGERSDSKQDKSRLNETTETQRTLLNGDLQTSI

[3] = target: Somatostatin receptor type 4 (Homo sapiens, UniProt P31391); experiment: Binding affinity towards human Somatostatin receptor type 4 using 125I-[Leu,DTrp,Tyr]SRIF-28 as radioligand
Sequence of Somatostatin receptor type 4 (P31391 whole entry): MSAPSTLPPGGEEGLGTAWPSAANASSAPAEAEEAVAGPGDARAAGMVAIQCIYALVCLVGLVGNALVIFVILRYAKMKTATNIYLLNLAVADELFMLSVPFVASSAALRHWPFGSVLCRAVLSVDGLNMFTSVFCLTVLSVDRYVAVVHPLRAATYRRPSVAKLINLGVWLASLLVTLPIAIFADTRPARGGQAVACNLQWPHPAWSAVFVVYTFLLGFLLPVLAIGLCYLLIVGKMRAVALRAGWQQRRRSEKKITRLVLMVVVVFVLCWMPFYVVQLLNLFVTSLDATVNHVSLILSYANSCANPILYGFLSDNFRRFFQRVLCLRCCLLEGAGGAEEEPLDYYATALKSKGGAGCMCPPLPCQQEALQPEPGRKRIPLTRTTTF

[4] = target: Somatostatin receptor type 3 (Homo sapiens, UniProt P32745); experiment: Binding affinity towards human Somatostatin receptor type 3 using 125I-[Leu,DTrp,Tyr]SRIF-28 as radioligand
Sequence of Somatostatin receptor type 3 (P32745 whole entry): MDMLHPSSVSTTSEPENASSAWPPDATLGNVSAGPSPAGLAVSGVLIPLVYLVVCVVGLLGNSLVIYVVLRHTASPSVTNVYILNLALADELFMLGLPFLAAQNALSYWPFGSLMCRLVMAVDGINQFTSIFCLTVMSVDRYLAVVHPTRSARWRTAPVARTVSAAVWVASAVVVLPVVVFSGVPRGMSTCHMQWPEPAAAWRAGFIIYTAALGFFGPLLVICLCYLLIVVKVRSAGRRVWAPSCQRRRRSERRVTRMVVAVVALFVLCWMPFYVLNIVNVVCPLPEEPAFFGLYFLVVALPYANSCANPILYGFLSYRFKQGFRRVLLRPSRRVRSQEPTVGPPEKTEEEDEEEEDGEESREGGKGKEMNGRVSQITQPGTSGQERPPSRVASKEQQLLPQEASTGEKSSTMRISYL

[5] = target: Somatostatin receptor type 5 (Homo sapiens, UniProt P35346); experiment: Binding affinity towards human Somatostatin receptor type 5 using 125I-[Leu,DTrp,Tyr]SRIF-28 as radioligand
Sequence of Somatostatin receptor type 5 (P35346 whole entry): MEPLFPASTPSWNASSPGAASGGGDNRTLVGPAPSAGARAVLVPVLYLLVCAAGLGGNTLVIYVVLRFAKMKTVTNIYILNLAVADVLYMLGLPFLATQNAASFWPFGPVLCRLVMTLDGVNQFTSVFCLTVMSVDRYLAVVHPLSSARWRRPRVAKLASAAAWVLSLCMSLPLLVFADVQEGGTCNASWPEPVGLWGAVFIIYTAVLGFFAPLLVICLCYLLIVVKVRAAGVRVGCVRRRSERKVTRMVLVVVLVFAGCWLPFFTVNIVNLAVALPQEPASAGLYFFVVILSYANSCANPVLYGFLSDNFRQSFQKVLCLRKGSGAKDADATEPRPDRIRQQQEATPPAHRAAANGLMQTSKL

| SMILES | IC50 [1] [nM] | IC50 [2] [nM] | IC50 [3] [nM] | IC50 [4] [nM] | IC50 [5] [nM] |
| --- | --- | --- | --- | --- | --- |
| C[C@@H](O)[C@@H]1NC(=O)[C@@H](N(C)C(=O)CCN)NC(=O)[C@@H](Cc2c[nH]c3ccccc23)NC(=O)[C@H](Cc2ccccc2)NC(=O)[C@H](Cc2ccccc2)NC(=O)[C@@H](N)CSSC[C@@H](C(=O)O)NC(=O)[C@H](Cc2ccccc2)NC1=O | > 10000 | > 10000 | 429 | > 1000 | > 1000 |
| C[C@@H](O)[C@@H]1NC(=O)[C@H](CCCCN)NC(=O)[C@@H](Cc2c[nH]c3ccccc23)NC(=O)[C@H](Cc2ccccc2)NC(=O)[C@H](Cc2ccccc2)NC(=O)[C@@H](N)CSSC[C@@H](C(=O)O)NC(=O)[C@@H](N(C)C(=O)c2ccccc2)NC1=O | > 10000 | > 1000 | 80 | > 1000 | > 1000 |
| COC(=O)[C@H](CCCN=C(N)N)NC(=O)CCCc1c(-c2ccccc2)[nH]c2c(F)cc(F)cc12 | > 1000 | > 1000 |  | > 1000 | > 10000 |
| C[C@@H](O)[C@@H]1NC(=O)[C@H](CCCCN)NC(=O)[C@@H](Cc2c[nH]c3ccccc23)NC(=O)[C@H](Cc2ccccc2)NC(=O)[C@H](Cc2ccccc2)NC(=O)[C@@H](N)CSSC[C@@H](C(=O)O)NC(=O)[C@H](N(C)C(=O)c2ccccc2)NC1=O | > 10000 | 455 | 6.9 | 235 | 220 |
| C[C@@H](O)[C@@H]1NC(=O)[C@H](N(C)C(=O)CCN)NC(=O)[C@@H](Cc2c[nH]c3ccccc23)NC(=O)[C@H](Cc2ccccc2)NC(=O)[C@H](Cc2ccccc2)NC(=O)[C@@H](N)CSSC[C@@H](C(=O)O)NC(=O)[C@H](Cc2ccccc2)NC1=O | > 1000 | > 1000 | > 1000 | > 1000 | > 1000 |
| C[C@@H](O)[C@@H]1NC(=O)[C@H](CCCCN)NC(=O)[C@H](Cc2c[nH]c3ccccc23)NC(=O)[C@H](N(C)C(=O)c2ccccc2)NC(=O)[C@H](Cc2ccccc2)NC(=O)[C@@H](N)CSSC[C@@H](C(=O)O)NC(=O)[C@H](Cc2ccccc2)NC1=O | > 10000 | > 1000 | 5.4 | 403 | > 1000 |
| C[C@@H](O)[C@@H]1NC(=O)[C@H](CCCCN)NC(=O)[C@H](Cc2c[nH]c3ccccc23)NC(=O)[C@H](Cc2ccccc2)NC(=O)[C@H](Cc2ccccc2)NC(=O)[C@@H](N)CSSC[C@@H](C(=O)O)NC(=O)[C@H](Cc2ccccc2)NC1=O (H-CFFWKTFC-OH; disulfide 1-8) | 27 | 41 | 1.8 |  | 46 |
| C[C@@H](O)[C@@H]1NC(=O)[C@H](CCCCN)NC(=O)[C@@H](Cc2c[nH]c3ccccc23)NC(=O)[C@H](Cc2ccccc2)NC(=O)[C@H](Cc2ccccc2)NC(=O)[C@@H](N)CSSC[C@@H](C(=O)O)NC(=O)[C@H](Cc2ccccc2)NC1=O (H-CFF[dW]KTFC-OH; disulfide 1-8) | 5.3 | 130 | 0.7 |  | 14 |
| C[C@@H](O)[C@@H]1NC(=O)[C@H](CCCCN)NC(=O)[C@@H](Cc2c[nH]c3ccccc23)NC(=O)[C@H](Cc2ccccc2)NC(=O)[C@H](N(C)C(=O)c2ccccc2)NC(=O)[C@@H](N)CSSC[C@@H](C(=O)O)NC(=O)[C@H](Cc2ccccc2)NC1=O (stereo in doubt; 4) | 667 | 374 | 14 | > 10000 | > 1000 |
| C[C@@H](O)[C@@H]1NC(=O)[C@H](CCCCN)NC(=O)[C@@H](Cc2c[nH]c3ccccc23)NC(=O)[C@H](Cc2ccccc2)NC(=O)[C@H](N(C)C(=O)c2ccccc2)NC(=O)[C@@H](N)CSSC[C@@H](C(=O)O)NC(=O)[C@H](Cc2ccccc2)NC1=O (stereo in doubt; 5) | > 10000 | > 1000 | > 1000 |  |  |
| C[C@@H](O)[C@@H]1NC(=O)[C@H](CCCCN)NC(=O)[C@@H](Cc2c[nH]c3ccccc23)NC(=O)[C@H](N(C)C(=O)c2ccccc2)NC(=O)[C@H](Cc2ccccc2)NC(=O)[C@H](N)CSSC[C@@H](C(=O)O)NC(=O)[C@H](Cc2ccccc2)NC1=O (stereo in doubt; 7) | > 10000 | > 1000 | 133 | 725 | > 1000 |
| C[C@@H](O)[C@@H]1NC(=O)[C@H](CCCCN)NC(=O)[C@@H](Cc2c[nH]c3ccccc23)NC(=O)[C@H](N(C)C(=O)c2ccccc2)NC(=O)[C@H](Cc2ccccc2)NC(=O)[C@H](N)CSSC[C@@H](C(=O)O)NC(=O)[C@H](Cc2ccccc2)NC1=O (stereo in doubt; 8) |  | 460 | 5.2 | 447 | 768 |
| C[C@@H](O)[C@@H]1NC(=O)[C@H](CCCCN)NC(=O)[C@@H](Cc2c[nH]c3ccccc23)NC(=O)[C@H](N(C)C(=O)c2ccccc2)NC(=O)[C@H](Cc2ccccc2)NC(=O)[C@H](N)CSSC[C@@H](C(=O)O)NC(=O)[C@H](Cc2ccccc2)NC1=O (stereo in doubt; 9) |  |  | 153 | > 1000 |  |
| C[C@@H](O)[C@@H]1NC(=O)[C@H](CCCCN)NC(=O)[C@@H](Cc2c[nH]c3ccccc23)NC(=O)[C@H](N(C)C(=O)c2ccccc2)NC(=O)[C@H](Cc2ccccc2)NC(=O)[C@H](N)CSSC[C@@H](C(=O)O)NC(=O)[C@H](Cc2ccccc2)NC1=O (stereo in doubt; 10) | > 1000 | 533 | 3.4 | 382 | 460 |
| C[C@@H](O)[C@@H]1NC(=O)[C@H](CCCCN)NC(=O)[C@@H](Cc2c[nH]c3ccccc23)NC(=O)[C@H](N(C)C(=O)c2ccccc2)NC(=O)[C@H](Cc2ccccc2)NC(=O)[C@H](N)CSSC[C@@H](C(=O)O)NC(=O)[C@H](Cc2ccccc2)NC1=O (stereo in doubt; 11) |  |  | 31 | 136 |  |
| C[C@@H](O)[C@@H]1NC(=O)[C@@H](NC(=O)CCN)NC(=O)[C@@H](Cc2c[nH]c3ccccc23)NC(=O)[C@H](Cc2ccccc2)NC(=O)[C@H](Cc2ccccc2)NC(=O)[C@@H](N)CSSC[C@@H](C(=O)O)NC(=O)[C@H](Cc2ccccc2)NC1=O (stereo in doubt; 16) | > 10000 | > 1000 | > 10000 | > 1000 | > 10000 |
| C[C@@H](O)[C@@H]1NC(=O)[C@@H](NC(=O)CCN)NC(=O)[C@@H](Cc2c[nH]c3ccccc23)NC(=O)[C@H](Cc2ccccc2)NC(=O)[C@H](Cc2ccccc2)NC(=O)[C@@H](N)CSSC[C@@H](C(=O)O)NC(=O)[C@H](Cc2ccccc2)NC1=O (stereo in doubt; 17) | > 10000 | > 1000 | > 1000 | > 1000 | > 10000 |
| CN(C(=O)CO)[C@H]1NC(=O)[C@H](CCCCN)NC(=O)[C@@H](Cc2c[nH]c3ccccc23)NC(=O)[C@H](Cc2ccccc2)NC(=O)[C@H](Cc2ccccc2)NC(=O)[C@@H](N)CSSC[C@@H](C(=O)O)NC(=O)[C@H](Cc2ccccc2)NC1=O (stereo in doubt; 20) | 45 | > 1000 | 6.5 | > 1000 | 211 |
| CN(C(=O)CO)[C@H]1NC(=O)[C@H](CCCCN)NC(=O)[C@@H](Cc2c[nH]c3ccccc23)NC(=O)[C@H](Cc2ccccc2)NC(=O)[C@H](Cc2ccccc2)NC(=O)[C@@H](N)CSSC[C@@H](C(=O)O)NC(=O)[C@H](Cc2ccccc2)NC1=O (stereo in doubt; 21) | 860 | > 1000 | 38 | > 1000 | 389 |
